Data taken from US20250213639A1 (U.S. NUTRACEUTICALS, INC., d/b/a Valensa International, priority 2021, published 2025).
One block for each molecule: values may come before it.

Columns and labels:
DHT = conditions: cited from earlier work
[1] = oral, guinea pigs, fur and skin; cited from earlier work
[2] = system: men with mild to moderate androgenic alopecia; conditions: 1 milligram per day, 24 months; cited from earlier work
5α-Reductase-1 = target: T1, 5α-Reductase-1 (Homo sapiens, UniProt P18405); assay: 5α-reductase inhibition by constituents of saw palmetto extract (FIGS. 2, 3), Type 1; assay type: biochemical
T1 sequence (P18405 1-259): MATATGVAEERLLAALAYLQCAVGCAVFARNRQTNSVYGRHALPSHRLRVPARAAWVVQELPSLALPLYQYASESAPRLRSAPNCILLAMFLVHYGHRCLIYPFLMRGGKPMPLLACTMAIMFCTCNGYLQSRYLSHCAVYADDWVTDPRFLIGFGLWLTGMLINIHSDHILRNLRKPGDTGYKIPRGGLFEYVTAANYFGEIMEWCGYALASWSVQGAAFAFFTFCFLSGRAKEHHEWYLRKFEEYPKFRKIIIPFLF

normal mice = conditions: after about 20 days, normal shaved mice; cited from earlier work
5α-Reductase-2 = target: T2, 5α-Reductase-2 (Homo sapiens, UniProt P31213); assay: 5α-reductase inhibition by constituents of saw palmetto extract (FIGS. 2, 3), Type 2; assay type: biochemical
T2 sequence (P31213 1-254): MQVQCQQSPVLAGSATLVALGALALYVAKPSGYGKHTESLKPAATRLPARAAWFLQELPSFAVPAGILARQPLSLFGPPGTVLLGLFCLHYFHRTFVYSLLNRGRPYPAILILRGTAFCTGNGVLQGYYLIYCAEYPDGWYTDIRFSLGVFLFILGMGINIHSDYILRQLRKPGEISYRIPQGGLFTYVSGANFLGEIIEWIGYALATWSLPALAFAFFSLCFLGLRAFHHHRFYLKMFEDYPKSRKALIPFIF

SMILES: C[C@]12C=CC(=O)N[C@@H]1CC[C@@H]1[C@@H]2CC[C@]2(C)[C@@H](C(=O)Nc3cc(C(F)(F)F)ccc3C(F)(F)F)CC[C@@H]12 [Dutasteride]
reduction of DHT levels in the entire body (DHT; in vivo): more than 99%

SMILES: CC/C=C\C/C=C\C/C=C\CCCCCCCC(=O)O [Linolenic acid]
share of that lipid found in the free fatty acid form [1]: Over 70%

SMILES: CC(C)(C)NC(=O)[C@H]1CC[C@H]2[C@@H]3CC[C@H]4NC(=O)C=C[C@]4(C)[C@H]3CC[C@]12C [finasteride]
men who noted an improvement [2]: 68%
decrease of the production of DHT (DHT; in some formulations): about 70%

effectiveness for 5α-Reductase-1 (5α-Reductase-1): beneficial for both
SMILES: CCCCC/C=C\C/C=C\CCCCCCCC(=O)O [linoleic acid]
hair growth (normal mice): about 100%

SMILES: CCCCCCCC/C=C\CCCCCCCC(=O)O [oleic acid]
effectiveness for 5α-Reductase-1 (5α-Reductase-1): especially effective
effectiveness for 5α-Reductase-2 (5α-Reductase-2): not as much
